Literature values, collected in patent publication US20230087473A1, “COMPOSITION OF SUSPOEMULSION FORMULATION OF ANTHELMINTIC DRUGS WITH ESSENTIAL OILS FOR NASO-PULMONARY ADMINISTRATION” (priority 2021, published 2023).

Experiments:
[1] = in vivo
Musca Domenstica = conditions: nasal irrigation with ivermectin solution, within 15 minutes
SARS-COV-2 = conditions: in-vitro study

For O=C(Nc1ccc([N+](=O)[O-])cc1Cl)c1cc(Cl)ccc1O [Niclosamide], the bioavailability [1] is given as “very low bioavailability”.
For Ivermectin, the “larvae self-expulsed by the patient” value (Musca Domenstica) is given as “approximately 50 larvae” and the “effect on replication of SARS-COV-2” value (SARS-COV-2) is given as “inhibitory role”.
